What was measured:
[1] = test system: Escherichia coli ARLG 2829; test: MIC test of compounds in combination with antibiotics, Escherichia coli ARLG 2829; conditions: for MIC: Escherichia coli, ARLG2829; for MIC of biapenem in combination with compound, Escherichia coli ARLG-2829 NDM-5, OXA-1: Biapenem + compound (8 μg/mL); for MIC of meropenem in combination with compound, Escherichia coli ARLG-2829 NDM-5, OXA-1: Meropenem + compound (8 μg/mL)
[2] = test system: Klebsiella pneumoniae ARLG 1196; test: MIC test of compounds in combination with antibiotics, Klebsiella pneumoniae ARLG 1196; conditions: for MIC: Klebsiella pneumoniae, ARLG1196; for MIC of biapenem in combination with compound, Klebsiella pneumoniae ARLG-1196 CTM-1 group, SHV, NDM, TEM: Biapenem + compound (8 μg/mL); for MIC of meropenem in combination with compound, Klebsiella pneumoniae ARLG-1196 CTM-1 group, SHV, NDM, TEM: Meropenem + compound (8 μg/mL)
[3] = test system: Klebsiella pneumoniae ATCC BAA-2470; test: MIC test of compounds in combination with antibiotics, Klebsiella pneumoniae ATCC BAA-2470; conditions: for MIC: Klebsiella pneumoniae, ATCCBAA2470; for MIC of biapenem in combination with compound, Klebsiella pneumoniae ATCC BAA-2470 NDM-1: Biapenem + compound (8 μg/mL); for MIC of meropenem in combination with compound, Klebsiella pneumoniae ATCC BAA-2470 NDM-1: Meropenem + compound (8 μg/mL)
[4] = test system: Klebsiella pneumoniae ATCC BAA-1705; test: MIC test of compounds in combination with antibiotics, Klebsiella pneumoniae ATCC BAA-1705; conditions: for MIC: Klebsiella pneumoniae, ATCCBAA1705; for MIC of biapenem in combination with compound, Klebsiella pneumoniae ATCC BAA-1705 KPC-2: Biapenem + compound (8 μg/mL); for MIC of meropenem in combination with compound, Klebsiella pneumoniae ATCC BAA-1705 KPC-2: Meropenem + compound (8 μg/mL)
[5] = test system: Acinetobacter baumannii WX-AB005; test: MIC test of compounds in combination with antibiotics, Acinetobacter baumannii WX-AB005; conditions: Acinetobacter baumannii, WXAB005
[6] = test system: Acinetobacter baumannii WX-AB013; test: MIC test of compounds in combination with antibiotics, Acinetobacter baumannii WX-AB013; conditions: Acinetobacter baumannii, WXAB013
[7] = test system: Acinetobacter baumannii ARLG-1791 OXA-23; test: MIC test of compounds in combination with antibiotics, Acinetobacter baumannii ARLG-1791; conditions: Acinetobacter baumannii, ARLG1791OXA23
[8] = test system: Acinetobacter baumannii ARLG-1809 OXA-23; test: MIC test of compounds in combination with antibiotics, Acinetobacter baumannii ARLG-1809; conditions: Acinetobacter baumannii, ARLG1809OXA23
[9] = test system: Acinetobacter baumannii ARLG-1852 OXA-23; test: MIC test of compounds in combination with antibiotics, Acinetobacter baumannii ARLG-1852; conditions: Acinetobacter baumannii, ARLG1852OXA23
[10] = test system: Acinetobacter baumannii ARLG-1853 OXA-23; test: MIC test of compounds in combination with antibiotics, Acinetobacter baumannii ARLG-1853; conditions: Acinetobacter baumannii, ARLG1853OXA23
[11] = test system: Acinetobacter baumannii WX-AB005; test: MIC test of compounds in combination with antibiotics, Acinetobacter baumannii WX-AB005; conditions: for MIC of biapenem in combination with compound, Acinetobacter baumannii WX-AB005: Biapenem + compound (8 μg/mL); for MIC of meropenem in combination with compound, Acinetobacter baumannii WX-AB005: Meropenem + compound (8 μg/mL)
[12] = test system: Acinetobacter baumannii WX-AB013; test: MIC test of compounds in combination with antibiotics, Acinetobacter baumannii WX-AB013; conditions: for MIC of biapenem in combination with compound, Acinetobacter baumannii WX-AB013: Biapenem + compound (8 μg/mL); for MIC of meropenem in combination with compound, Acinetobacter baumannii WX-AB013: Meropenem + compound (8 μg/mL)
[13] = test system: Acinetobacter baumannii ARLG-1791 OXA-23; test: MIC test of compounds in combination with antibiotics, Acinetobacter baumannii ARLG-1791; conditions: for MIC of biapenem in combination with compound, Acinetobacter baumannii ARLG-1791 OXA-23: Biapenem + compound (8 μg/mL); for MIC of meropenem in combination with compound, Acinetobacter baumannii ARLG-1791 OXA-23: Meropenem + compound (8 μg/mL)
[14] = test system: Acinetobacter baumannii ARLG-1809 OXA-23; test: MIC test of compounds in combination with antibiotics, Acinetobacter baumannii ARLG-1809; conditions: for MIC of biapenem in combination with compound, Acinetobacter baumannii ARLG-1809 OXA-23: Biapenem + compound (8 μg/mL); for MIC of meropenem in combination with compound, Acinetobacter baumannii ARLG-1809 OXA-23: Meropenem + compound (8 μg/mL)
[15] = test system: Acinetobacter baumannii ARLG-1852 OXA-23; test: MIC test of compounds in combination with antibiotics, Acinetobacter baumannii ARLG-1852; conditions: for MIC of biapenem in combination with compound, Acinetobacter baumannii ARLG-1852 OXA-23: Biapenem + compound (8 μg/mL); for MIC of meropenem in combination with compound, Acinetobacter baumannii ARLG-1852 OXA-23: Meropenem + compound (8 μg/mL)
[16] = test system: Acinetobacter baumannii ARLG-1853 OXA-23; test: MIC test of compounds in combination with antibiotics, Acinetobacter baumannii ARLG-1853; conditions: for MIC of biapenem in combination with compound, Acinetobacter baumannii ARLG-1853 OXA-23: Biapenem + compound (8 μg/mL); for MIC of meropenem in combination with compound, Acinetobacter baumannii ARLG-1853 OXA-23: Meropenem + compound (8 μg/mL)

Row | Structure (SMILES) | MIC of biapenem in combination with compound, Escherichia coli ARLG-2829 NDM-5, OXA-1 [1] [µg/mL] | MIC of meropenem in combination with compound, Escherichia coli ARLG-2829 NDM-5, OXA-1 [1] [µg/mL] | MIC of biapenem in combination with compound, Klebsiella pneumoniae ARLG-1196 CTM-1 group, SHV, NDM, TEM [2] [µg/mL] | MIC of meropenem in combination with compound, Klebsiella pneumoniae ARLG-1196 CTM-1 group, SHV, NDM, TEM [2] [µg/mL] | MIC of biapenem in combination with compound, Klebsiella pneumoniae ATCC BAA-2470 NDM-1 [3] [µg/mL] | MIC of meropenem in combination with compound, Klebsiella pneumoniae ATCC BAA-2470 NDM-1 [3] [µg/mL] | MIC of biapenem in combination with compound, Klebsiella pneumoniae ATCC BAA-1705 KPC-2 [4] [µg/mL] | MIC of meropenem in combination with compound, Klebsiella pneumoniae ATCC BAA-1705 KPC-2 [4] [µg/mL] | MIC of biapenem in combination with compound, Acinetobacter baumannii WX-AB005 [11] [µg/mL] | MIC of meropenem in combination with compound, Acinetobacter baumannii WX-AB005 [11] [µg/mL] | MIC [1] [µg/mL] | MIC [2] [µg/mL] | MIC [3] [µg/mL] | MIC [4] [µg/mL] | MIC [5] [µg/mL] | MIC [6] [µg/mL] | MIC [7] [µg/mL] | MIC [8] [µg/mL] | MIC [9] [µg/mL] | MIC [10] [µg/mL] | other results
1 | C[C@@H](O)[C@H]1C(=O)N2C(C(=O)[O-])=C(SC3Cn4cnc[n+]4C3)[C@H](C)[C@H]12 (stereo partly drawn) [Biapenem, biapenem] | – | – | – | – | – | – | – | – | – | – | 16 | 8 | 4 | 32 | 32 | 64 | 16 | 32 | 32 | 32 | –
2 | CO/N=C(\C(=O)N[C@@H]1C(=O)N2C(C(=O)[O-])=C(C[N+]3(C)CCCC3)CS[C@H]12)c1csc(N)n1 [Cefepime] | – | – | – | – | – | – | – | – | – | – | > 64 | > 64 | > 128 | > 128 | 64 | 32 | 128 | 128 | 128 | 128 | –
3 | C[C@@H](O)[C@H]1C(=O)N2C(C(=O)O)=C(S[C@@H]3CN[C@H](C(=O)N(C)C)C3)[C@H](C)[C@H]12 [Meropenem] | – | – | – | – | – | – | – | – | – | – | > 128 | 128 | 128 | 128 | > 128 | 64 | > 128 | 32 | 128 | 128 | –

More lines, main results first:

Row | MIC of biapenem in combination with compound, Escherichia coli ARLG-2829 NDM-5, OXA-1 [1] [µg/mL] | MIC of meropenem in combination with compound, Escherichia coli ARLG-2829 NDM-5, OXA-1 [1] [µg/mL] | MIC of biapenem in combination with compound, Klebsiella pneumoniae ARLG-1196 CTM-1 group, SHV, NDM, TEM [2] [µg/mL] | MIC of meropenem in combination with compound, Klebsiella pneumoniae ARLG-1196 CTM-1 group, SHV, NDM, TEM [2] [µg/mL] | MIC of biapenem in combination with compound, Klebsiella pneumoniae ATCC BAA-2470 NDM-1 [3] [µg/mL] | MIC of meropenem in combination with compound, Klebsiella pneumoniae ATCC BAA-2470 NDM-1 [3] [µg/mL] | MIC of biapenem in combination with compound, Klebsiella pneumoniae ATCC BAA-1705 KPC-2 [4] [µg/mL] | MIC of meropenem in combination with compound, Klebsiella pneumoniae ATCC BAA-1705 KPC-2 [4] [µg/mL] | MIC of biapenem in combination with compound, Acinetobacter baumannii WX-AB005 [11] [µg/mL] | MIC of meropenem in combination with compound, Acinetobacter baumannii WX-AB005 [11] [µg/mL] | Structure (SMILES) | MIC [1] [µg/mL] | MIC [2] [µg/mL] | MIC [3] [µg/mL] | MIC [4] [µg/mL] | MIC [5] [µg/mL] | MIC [6] [µg/mL] | MIC [7] [µg/mL] | MIC [8] [µg/mL] | MIC [9] [µg/mL] | MIC [10] [µg/mL] | other results
4 | ≤0.125 | 2 | ≤0.125 | 2 | 0.5 | 8 | 0.5 | 1 | 4 | 8 | C[C@H](Sc1ccc2c(c1C(=O)O)OB(O)[C@@H]1C[C@H]21)[C@@H]1CCCO1 [Compound 18-a] | – | – | – | – | – | – | – | – | – | – | MIC of biapenem in combination with compound, Acinetobacter baumannii WX-AB013 [12]: 0.5 µg/mL; MIC of meropenem in combination with compound, Acinetobacter baumannii WX-AB013 [12]: 4 µg/mL; MIC of biapenem in combination with compound, Acinetobacter baumannii ARLG-1791 OXA-23 [13]: 0.5 µg/mL; MIC of meropenem in combination with compound, Acinetobacter baumannii ARLG-1791 OXA-23 [13]: 8 µg/mL; MIC of biapenem in combination with compound, Acinetobacter baumannii ARLG-1809 OXA-23 [14]: 2 µg/mL; MIC of meropenem in combination with compound, Acinetobacter baumannii ARLG-1809 OXA-23 [14]: 4 µg/mL; MIC of biapenem in combination with compound, Acinetobacter baumannii ARLG-1852 OXA-23 [15]: 0.5 µg/mL; MIC of meropenem in combination with compound, Acinetobacter baumannii ARLG-1852 OXA-23 [15]: 2 µg/mL; MIC of biapenem in combination with compound, Acinetobacter baumannii ARLG-1853 OXA-23 [16]: 0.5 µg/mL; MIC of meropenem in combination with compound, Acinetobacter baumannii ARLG-1853 OXA-23 [16]: 2 µg/mL
5 | 0.5 | 8 | ≤0.125 | 4 | 0.5 | 16 | 0.5 | 0.5 | 4 | 8 | C[C@@H](Sc1ccc2c(c1C(=O)O)OB(O)[C@H]1C[C@@H]21)[C@@H]1CCCO1 [Compound 18-d] | – | – | – | – | – | – | – | – | – | – | MIC of biapenem in combination with compound, Acinetobacter baumannii WX-AB013 [12]: 1 µg/mL; MIC of meropenem in combination with compound, Acinetobacter baumannii WX-AB013 [12]: 4 µg/mL; MIC of biapenem in combination with compound, Acinetobacter baumannii ARLG-1791 OXA-23 [13]: 1 µg/mL; MIC of meropenem in combination with compound, Acinetobacter baumannii ARLG-1791 OXA-23 [13]: 8 µg/mL; MIC of biapenem in combination with compound, Acinetobacter baumannii ARLG-1809 OXA-23 [14]: 4 µg/mL; MIC of meropenem in combination with compound, Acinetobacter baumannii ARLG-1809 OXA-23 [14]: 8 µg/mL; MIC of biapenem in combination with compound, Acinetobacter baumannii ARLG-1852 OXA-23 [15]: 1 µg/mL; MIC of meropenem in combination with compound, Acinetobacter baumannii ARLG-1852 OXA-23 [15]: 8 µg/mL; MIC of biapenem in combination with compound, Acinetobacter baumannii ARLG-1853 OXA-23 [16]: 1 µg/mL; MIC of meropenem in combination with compound, Acinetobacter baumannii ARLG-1853 OXA-23 [16]: 4 µg/mL
6 | 0.25 | 16 | ≤0.125 | 2 | ≤0.125 | 4 | 0.5 | ≤0.125 | 2 | 4 | C[C@H](Sc1ccc2c(c1C(=O)O)OB(O)[C@@H]1C[C@H]21)C1CN(C)C1 [Compound 20-a] | – | – | – | – | – | – | – | – | – | – | MIC of biapenem in combination with compound, Acinetobacter baumannii WX-AB013 [12]: 0.5 µg/mL; MIC of meropenem in combination with compound, Acinetobacter baumannii WX-AB013 [12]: 2 µg/mL; MIC of biapenem in combination with compound, Acinetobacter baumannii ARLG-1791 OXA-23 [13]: 0.25 µg/mL; MIC of meropenem in combination with compound, Acinetobacter baumannii ARLG-1791 OXA-23 [13]: 2 µg/mL; MIC of biapenem in combination with compound, Acinetobacter baumannii ARLG-1809 OXA-23 [14]: 0.5 µg/mL; MIC of meropenem in combination with compound, Acinetobacter baumannii ARLG-1809 OXA-23 [14]: 2 µg/mL; MIC of biapenem in combination with compound, Acinetobacter baumannii ARLG-1852 OXA-23 [15]: 0.25 µg/mL; MIC of meropenem in combination with compound, Acinetobacter baumannii ARLG-1852 OXA-23 [15]: 2 µg/mL; MIC of biapenem in combination with compound, Acinetobacter baumannii ARLG-1853 OXA-23 [16]: 0.25 µg/mL; MIC of meropenem in combination with compound, Acinetobacter baumannii ARLG-1853 OXA-23 [16]: 2 µg/mL
